Results as given in US12291513B2, “Pyridinium derivatives made by hydrothermal synthesis for use as anolytes in electrochemical cells” (Wisconsin Alumni Research Foundation, priority 2021, dated 2025).
Where two headings read alike, the source gives them in different places.

Tests used:
Assay type in all cases: physicochemical
Viscosity (rheometer) = settings: for viscosity: pure water
Procedure: Viscosity measurements were carried out using an Ares G2 rheometer (TA Instruments) with an advanced Peltier system at 25° C.

Degradation in 1M KOH = assay: Degradation in 1M KOH
[1] = Electrochemical impedance spectroscopy (EIS)
Procedure: CV and EIS experiments were ran using a PalmSens4 potentiostat with the PSTrace software. Electrochemical experiments were performed in 1.0 M NaCl supporting electrolyte using 15 mM of active material at room temperature (18° C.). Formal potentials for the redox couples were estimated by taking the average potential between the cathodic and anodic peak. Diffusional behavior was investigated by varying the scan rate between 10-100 mV·s^−1 for the first electron reduction and 50-200 mV·s^−1 for the second electron reduction, and the diffusion constants of the reduced and oxidized states (D^R and D^O) were determined via the Randles-Sevcik equation assuming ideal reversible behavior (FIG. 12D). Potentiostatic EIS measurements were used for determination of a combined diffusional constant of the reduced and oxidized states (D^EIS) and of the standard electron kinetic rate constant (k^o). These EIS measurements were performed at the formal reduction potential (held for 30 seconds before measurement) in which the concentration of the two redox states at the electrode surface were assumed to be the same and equal to half of the initially prepared redox species concentration.
A glassy carbon working electrode (CH Instruments, 0.0707 cm^2), a saturated calomel reference electrode (SCE, CH Instruments, +0.241 V vs. SHE), and a platinum wire counter electrode were used for both CV and EIS measurements. The working electrode was polished with 1 μm, 0.3 μm, and 0.05 μm alumina slurry successively. All electrodes were rinsed with deionized water in between measurements.
Potentiostatic EIS measurements were taken at the formal potential in which the reduction and oxidation processes are at equilibrium and the concentrations of the reduced and oxidized states can be assumed equal. This permitted simple calculation of the standard kinetic rate constant (k^o) via Eqn. 2 where R is the ideal gas constant, T is temperature, n is number of electrons, RCT is the charge-transfer resistance, F is Faraday's constant, A is the electrode surface area in cm^2, and C is the concentration of either the oxidized or reduced form at the electrode surface in mole cm^−3 (which is assumed to be half of the initially prepared redox species concentration, C═C^O═C^R=0.5 Cinitial).
A combined diffusion coefficient of the reduced and oxidized state (D^EIS) can also be determined using Eqn. 3, where σ is the Warburg diffusional impedance variable and all other variables have the previously defined meaning.
RCT and σ can be determined by fitting the impedance spectrum to the ideal Randles equivalent circuit for a 3-electrode system where Ru is the uncompensated resistance between the working and reference electrode, RCT is the charge transfer resistance between the working electrode and the redox species, WD is the Warburg diffusional element, and CPE is the constant phase element that represents capacitive behavior of the working electrode.
The raw data was fitted based on this equivalent circuit using the Z-Fitting tool on the PSTrace software and with the Levenberg-Marquardt algorithm across the entire measured frequency range. For the second redox state, D2^EIS were 3.6×10^−6 cm^2·s^−1 and 3.8×10^−6 cm^2·s^−1 and k2^o were 0.13 cm·s^−1 and 0.23 cm·s^−1 for Dex-Vi and BTMAP-Vi, respectively.

Solubility in pure water = settings: pure water, 18 °C, water, thermodynamic from solid
Procedure: A measured amount of Dex-Vi was partially dissolved in pure water. The solution was then centrifuged. The supernatant was decanted, and the volume was measured. The remainder of the solid was dried in a vacuum oven and weighed. Finally, the weight of the remaining Dex-Vi was subtracted from the initial added mass to obtain the amount dissolved in the supernatant, permitting calculation of the maximum soluble concentration.

[2] = Membrane permeability in H-cell; settings: Selemion DSV membrane
Procedure: 0.33 M Dex-Vi in pure water was separated by an anion-exchange membrane (DSV) from 1 M NaCl in an H-cell. […] The cell was agitated on a shaker to partially simulate flow dynamics. Aliquots of the receiving end (1 M NaCl side) were taken every few days, and the removed volume was replaced with 1 M NaCl. The concentration of Dex-Vi in the aliquot was determined by measuring the absorbance at 285 nm using a UV-Vis spectrophotometer. The concentration as a function of time data was then used to calculate the permeability constant of Dex-Vi. (Kwabi, D. G. et al., Joule 2018, 2, 1894-1906)
Permeability was calculated using Eqn. 4 which follows Fick's Law, where P is the permeability in cm^2·s^−1, A is the membrane area in cm^2, t is elapsed time in seconds, Ct is the concentration (mol·cm^−3) of Dex-Vi on the receiving side at time t, C0 is the initial concentration of Dex-Vi on the donating side, Vo is the volume of one side of the H-cell, and l is the membrane thickness in cm.

SMILES: C[N+](C)(C)CC(O)C[n+]1ccc(-c2cc[n+](CC(O)C[N+](C)(C)C)cc2)cc1 (centres unmarked) [Dex-Vi, bis(3-trimethylammonio-2-hydroxy)propyl viologen tetrachloride]
- Viscosity at 1M, 25° C. (Viscosity (rheometer); 1M, 25° C.): 14.2 cP
- viscosity (Viscosity (rheometer); 0.25 M): 1.1 cP
- viscosity (Viscosity (rheometer); 0.50 M): 1.8 cP
- viscosity (Viscosity (rheometer); 1.0 M): 4.7 cP
- viscosity (Viscosity (rheometer); 1.5 M): 50 cP
- Degradation in 1M KOH, k (Degradation in 1M KOH): 3.22e-06 s⁻¹
- EIS D ([1]; Example 2): 3.516E−06 cm^2/s
- EIS i^0 ([1]; Example 2): 6.57E−04 A
- EIS k^0 ([1]; Example 2): 0.0128 cm/s
- k1^0 ([1]; Table 1): 0.05 cm/s
- combined diffusion coefficient (D1^EIS) ([1]; first reduction): 3.9×10^−6 cm^2·s^−1
- standard rate constant (k1^0) ([1]; first reduction): 0.05 cm/s
- D2^EIS ([1]; second redox state): 3.6×10^−6 cm^2·s^−1
- k2^o ([1]; second redox state): 0.13 cm/s
- solubility (Solubility in pure water; Example 2, read-out: Water Solubility): 1800 mM
- solubility (Solubility in pure water; room temperature (~18° C.), read-out: maximum solubility): ~2000 mM
- permeance [2]: 2.3×10^−11 cm^2·s^−1
